pEC50: −log10 of the molar value. Like-named read-outs stand apart in the source and are kept apart here.
Legend:
[1] = tested on: 3D7 P. falciparum strain; test: parasite proliferation assay in infected red blood cells (SYBR Green I); format: cell-based, Plasmodium falciparum; conditions: 3D7 strain, read-out: EC50 3D7 strain
Method in brief: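 P. falciparum 3D7 grown in O+ human erythrocytes to 3–8% parasitemia and exposed to compounds. Proliferation read as the increase in parasite DNA. Detection used SYBR Green I in saponin/triton-X/EDTA lysis buffer, with overnight lysis at room temperature.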

[2] = tested on: W2 strain; test: parasite proliferation assay in infected red blood cells (SYBR Green I), W2 strain; format: cell-based
Description: Compounds of the invention can be assayed to measure their capacity to inhibit proliferation of parasitemia in infected red blood cells. The proliferation is quantified by the addition of SYBR Green I (INVITROGEN)® dye which has a high affinity for double stranded DNA.

[3] = Plasmodium falciparum, 3D7, Erythrocyte
[4] = Plasmodium falciparum, Erythrocyte

SMILES	pEC50 [1, 3]	pEC50 ([2]; Erythrocyte)	pEC50 [2, 4]	pEC50 [1]	pEC50 [2]
Cc1ccc(Nc2c(-c3ccc(F)cc3)nc3n2CCN(C(=O)CC(N)C(F)(F)F)C3)cc1 (stereo not drawn) [Compound 190]	6.03	5.97			
COc1ccc(CN2Cc3nc(-c4ccc(F)cc4)c(Nc4ccc(Cl)c(F)c4)n3C(C)(C)C2=O)cc1 [Compound 613]	5.20		5.24		
COc1ccc(NC(C)(C)C(=O)N2CCn3c(nc(-c4ccc(F)cc4)c3Nc3ccc(C)cc3)C2)cc1 [Compound 364]	5.31	5.43			
Cc1cccc(Nc2c(-c3ccc(F)cc3)nc3n2CCN(C(=O)C(C)(C)N)C3)c1 [Compound 638]	7.19		7.17		
Cc1ccc(Nc2c(-c3ccc(F)cc3)nc3n2CCN(C(=O)C(Nc2ccc(C(F)(F)F)cc2Cl)C(C)C)C3)cc1 (stereo not drawn) [Compound 355]	5.55	5.64			
Cc1ccc(Nc2c(-c3ccc(F)cc3)nc3n2CCN(C(=O)C2(N)CCCCC2)C3)cc1 [Compound 141]	7.15	7.05			
Fc1ccc(-c2nc3n(c2Nc2ccc(Cl)c(F)c2)CCCC3)cc1 [Compound 749]	5.98		6.09		
COc1ccccc1-c1nc2n(c1Nc1ccc(C)cc1)CCN(C(=O)CN)C2 [Compound 381]	5.71	5.75			
NC(C(=O)N1CCn2c(nc(-c3cccc(F)c3)c2Nc2ccc(Cl)c(F)c2)C1)C(F)(F)F (stereo not drawn) [Compound 221]	7.05	7.08			
CC1(C)CN(C(=O)CN)Cc2nc(-c3cccc(F)c3)c(Nc3ccc(Cl)c(F)c3)n21 [Compound 623]	7.52		7.49		
Cc1ccc(Nc2c(-c3ccc(F)c(F)c3)nc3n2CCNC3)cc1 [Compound 278]	6.68	6.57			
Cc1ccc(Nc2c(-c3ccc(F)cc3)nc3n2CC(=O)NC3(C)C)cc1F [Compound 598]	7.40		7.13		
CC1(C)c2nc(-c3ccc(F)cc3)c(Sc3ccc(F)c(F)c3)n2CCN1C(=O)CN [Compound 718]	8.10		8.22		
Cc1ccc(Nc2c(-c3ccc(F)cc3F)nc3n2CCN(C(=O)CN)C3)cc1 [Compound 387]	6.96	7.10			
Cc1ccc(Nc2c(-c3ccc(F)c(F)c3)nc3n2CCN(C(=O)[C@H](O)C(C)C)C3)cc1 [Compound 391]	8.00	8.15			
CC(C)(C)CC(C)(C)Nc1c(-c2ccccc2-c2cccs2)nc2ccccn12 [Compound 741]	5.28		5.32		
Cc1ccc(Nc2c(-c3ccc(F)cc3)nc3n2CCN(C(=O)C(C)(C)N)C3)cc1C [Compound 637]	7.57		7.59		
O=C(CN1CC[C@@H](F)C1)N1CCn2c(nc(-c3ccc(F)cc3)c2Nc2ccc(F)cc2)C1 [Compound 58]	6.33	6.55			
N#Cc1ccc(Nc2c(-c3ccc(F)cc3)nc3n2CCNC3)cc1 [Compound 249]	5.27	5.30			
CCC(=O)Nc1ccc(C[C@H](NC(=O)OC(C)(C)C)C(=O)N2CCn3c(nc(-c4ccc(F)cc4)c3Nc3ccc(C)cc3)C2)cc1 [Compound 185]	6.46	6.87			

SMILES	pEC50 [1, 3]	pEC50 ([2]; Erythrocyte)	pEC50 [2, 4]	pEC50 [1]	pEC50 [2]
COc1ccc(CN2Cc3nc(-c4ccc(F)cc4)c(Nc4ccc(Cl)c(C)c4)n3C(C)(C)C2=O)cc1 [Compound 614]	5.30		5.34		
Cc1ccc(Nc2c(-c3ccc(F)cc3)nc3n2CCN(C(=O)[C@H](CCC(=O)OCc2ccccc2)NC(=O)OC(C)(C)C)C3)cc1 [Compound 150]	6.02	6.17			
NCC(=O)N1CCn2c(nc(-c3ccc(F)cc3)c2Nc2ccc(F)c(F)c2)C1 [Compound 30]	7.52	7.64			
CNC(C)(C)C(=O)N1CCn2c(nc(-c3ccc(F)cc3)c2Nc2ccc(Cl)c(F)c2)C1 [Compound 320]	6.77	6.99			
Cc1ccc(Nc2c(-c3ccc(F)cc3)nc3n2CCN(C(=O)C(c2ccccc2)C(C)C)C3)cc1 (stereo not drawn) [Compound 231]	7.05	7.15			
CCC(=O)N[C@H](C(=O)N1CCn2c(nc(-c3ccc(F)cc3)c2Nc2ccc(C)cc2)C1)c1ccccc1 [Compound 290]	6.36	6.40			
Cc1ccc(Nc2c(-c3ccc(F)cc3)nc3n2CCN(C(=O)C[C@@H](O)c2ccccc2)C3)cc1 [Compound 135]	7.30	7.48			
Cc1ccc(Nc2c(-c3ccc(F)cc3)nc3n2CCN(C(=O)[C@H](Cc2ccccc2)N(C)C)C3)cc1 [Compound 177]	6.37	6.37			
Cc1ccc(Nc2c(-c3ccc(F)cc3)nc3n2CCN(C(=O)C(C)(C)Nc2ccc(C)cc2)C3)cc1 [Compound 386]	5.58	5.52			
Cc1ccc(Nc2c(-c3ccc(F)cc3)nc3n2CCN(C(=O)CNc2ccc(C)cc2C)C3)cc1 [Compound 384]	6.33	6.05			
Cc1ccc(Nc2c(-c3ccc(F)cc3)nc3n2CCN(C(=O)C(O)c2ccc(Br)cc2F)C3)cc1 (stereo not drawn) [Compound 132]	7.00	7.09			
Cc1ccc(Nc2c(-c3ccc(F)cc3)nc3n2CCN(C(=O)CC(C)(C)O)C3)cc1 [Compound 100]	6.82	6.84			
NCC(=O)N1CCn2c(nc(-c3ccc(F)cc3O)c2Nc2ccc(F)cc2)C1 [Compound 51]	7.15	7.21			
CC1(C)c2nc(-c3ccc(F)cc3)c(Cc3ccc(F)c(F)c3)n2CCN1C(=O)CN [Compound 696]	7.70		7.66		
Cc1ccc(Nc2c(-c3ccc(F)cc3)nc3n2CCN(C(=O)C2(N)CCC2)C3)cc1 [Compound 139]	6.80	6.78			
CCCNC(=O)CC[C@H](N)C(=O)N1CCn2c(nc(-c3ccc(F)cc3)c2Nc2ccc(C)cc2)C1 [Compound 188]	6.10	5.96			
O=C(CN1CCn2c(nc(-c3ccc(F)cc3)c2Nc2ccc(Cl)cc2)C1)c1ccc(F)cc1 [Compound 271]	6.36	6.41			
CC(C)(O)CC(=O)N1CCn2c(nc(-c3cccc(F)c3)c2Nc2ccc(Cl)c(F)c2)C1 [Compound 234]	6.89	6.95			
CC1(C)c2nc(-c3ccc(F)cc3)c(Sc3ccc(Cl)cc3)n2CCN1C(=O)CN [Compound 716]	8.70		9.00		
O=C(CNc1ccccc1)N1CCn2c(nc(-c3ccc(F)cc3)c2Nc2ccc(Cl)c(F)c2)C1 [Compound 305]	7.05	7.03			

SMILES	pEC50 [1, 3]	pEC50 ([2]; Erythrocyte)	pEC50 [2, 4]	pEC50 [1]	pEC50 [2]
Cc1ccc(Nc2c(-c3ccc(F)cc3)nc3n2CCN(C(=O)C2CCNC2)C3)cc1 (stereo not drawn) [Compound 96]				6.24	6.49
Cc1ccc(Nc2c(-c3cccc(F)c3)nc3n2C(C)(C)CN(C(=O)[C@@H](O)Cc2ccccc2)C3)cc1 [Compound 599]	6.92		6.87		
CN(c1ccc(Cl)c(F)c1)c1c(-c2ccc(F)cc2)nc2n1CCN(C(=O)C(C)(C)N)C2 [Compound 294]	6.96	6.95			
CCC(C)CNc1c(-c2ccc(F)cc2)nc2n1CCN(C(=O)CN)C2(C)C (stereo not drawn) [Compound 674]	5.20		5.20		
Cc1ccc(Nc2c(-c3ccncc3)nc3n2CCNC3)cc1 [Compound 354]	5.20	6.25			
CCC[C@H](NC)C(=O)N1CCn2c(nc(-c3ccc(F)cc3)c2Nc2ccc(C)cc2)C1 [Compound 392]	7.52	7.41			
CCCC[C@H](NC)C(=O)N1CCn2c(nc(-c3ccc(F)cc3)c2Nc2ccc(C)cc2)C1 [Compound 389]	7.22	7.29			
CC(C)(C)CC(C)(C)Nc1c(C2CCCCC2)nc2ccccn12 [Compound 738]	5.49		5.81		
CC1(C)c2nc(-c3ccc(F)cc3)c(Cc3ccc(F)cc3)n2CCN1C(=O)CN [Compound 693]	8.10		8.10		
Cc1cc(C)cc(Nc2c(-c3ccc(F)cc3)nc3n2CCN(C(=O)CN)C3(C)C)c1 [Compound 656]	8.22		8.15		
Cc1ccc(Nc2c(-c3ccc(F)cc3)nc3n2CCN(C(=O)[C@@H](O)CCc2ccccc2)C3)cc1 [Compound 118]	6.82	6.87			
Cc1ccc(Nc2c(-c3ccc(F)cc3)nc3n2CCN(C(=O)CN)C3(C)C)cc1C [Compound 654]	8.30		8.22		
O=C(CN1CC[C@H](F)C1)N1CCn2c(nc(-c3ccc(F)cc3)c2Nc2ccc(F)cc2)C1 [Compound 59]	5.96	6.13			
Cc1ccc(Nc2c(-c3ccc(F)cc3)nc3n2CCN(C(=O)C(C)(N)C(F)(F)F)C3)cc1 (stereo not drawn) [Compound 366]	5.46	5.74			
CC(C)(N)C(=O)N1CCn2c(nc(-c3ccc(F)cc3)c2Nc2ccc(F)c(C#N)c2)C1 [Compound 636]	6.68		6.74		
Cc1ccc(Nc2c(-c3ccc(F)cc3)nc3n2CCN(C(=O)CNc2ccccc2)C3)cc1 [Compound 168]	8.00	7.96			
CC(C)(C)OC(=O)N[C@@H](CC(=O)OCc1ccccc1)C(=O)N1CCn2c(nc(-c3cccc(F)c3)c2Nc2ccc(F)cc2)C1 [Compound 237]	5.14	5.24			
CCCCC(=O)Nc1ccc(C[C@H](N)C(=O)N2CCn3c(nc(-c4cccc(F)c4)c3Nc3ccc(F)cc3)C2)cc1 [Compound 260]	5.12	5.30			
Fc1ccc(-c2nc3n(c2Nc2ccc(Cl)cc2)CCNC3)cc1 [Example 262, N-(4-chlorophenyl)-2-(4-fluorophenyl)-5,6,7,8-tetrahydroimidazo[1,2-a]pyrazin-3-mine]	6.62	6.57			
O=C(CN1CCC(F)(F)C1)N1CCn2c(nc(-c3ccc(F)cc3)c2Nc2ccc(F)cc2)C1 [Compound 57]	6.51	6.53			

— patent publication US9469645B2, “Compounds and compositions for the treatment of parasitic diseases” (Novartis AG, priority 2009, dated 2016)
